According to patent US20070185013A1, “Use of chk1 inhibitors to control cell proliferation” (ICOS CORPORATION, priority 2003, published 2007):
Entries after “also recorded” stand apart in the source; their conditions may differ.

Experiments:
H460 tumor cells = test: H460 non-small cell lung tumor xenograft model, tumor volume (Example 1); type: in vivo, mice; settings: gemcitabine alone, 160 mg/kg q3d×3
From the text: A method of the invention provided an improved antiproliferative effect over co-administration in an art-recognized […] tumor model. In the experiment, gemcitabine was used as the Chk1 activator and a diaryl urea compound according to Keegan et al., PCT/US02/06452, was used as the selective Chk1 inhibitor. (The same Chk1 inhibitor was used in the examples 2-11.) The target phase of gemcitabine is the S phase of the cell cycle. A non-small cell lung tumor xenograft tumor model, H460, was the art-recognized […] tumor model.
Nude mice were engrafted with H460 tumor cells and allowed to grow to an average of 75 mm3. Tumor-bearing mice were then treated with vehicle, gemcitabine or gemcitabine plus 400 mg/kg selective Chk1 inhibitor. The gemcitabine was administered at a dose of 160 mg/kg q3d×3 either simultaneously with the Chk1 inhibitor (co-administration) or, according to the invention, 18 hours prior to the Chk1 inhibitor to allow for S phase synchronization.
Tumors were measured every 2-3 days. On day 10, the median tumor volume for the vehicle group was 10 times the starting volume, while the gemcitabine alone group was four times the starting volume. The tumor volume for the gemcitabine plus Chk1 inhibitor co-administration group was also four times the starting volume. […]

tumor cells = test: Cell-based proliferation (sensitization) assay (Example 2); settings: ratio of GI90 of the chemotherapy agent in absence to that in presence of Chk1 inhibitor
Protocol: Chk1 inhibitors were tested in a cell-based proliferation assay for the ability to sensitize tumor cells to ionizing radiation or chemotherapy agents. Chk1 inhibitors were tested in combination with 5-FU, gemicitabine, ionizing radiation, camptothecin, etoposide, hydroxyurea, cisplatin, fludarabine, Ara-C and aphidicolin. For each experiment, a serial dilution of each compound in combination with a ten-point dilution of each chemotherapy agent was included, in order to determine the concentration of chemotherapeutic required to inhibit the growth of 90% (GI90) of the cells in the presence and absence of the Chk1 inhibitor. This ratio of GI90 in the absence of Chk1 inhibitor to that in the presence of Chk1 inhibitor is called the “fold sensitization.” Fold sensitization was plotted as a function of Chk1 inhibitor concentration and the amount of drug required to yield two-fold sensitization was calculated. […] Another parameter analyzed was the fold sensitization achieved at the LD50 (the dose of compound alone that inhibits growth of 50% of cells) for the compound. These two values allow direct ranking of both the potency and toxicity of Chk1 inhibitors with respect to one another.

H460 tumors = test: H3-P staining in H460 tumors after gemcitabine; type: in vivo, rodent
Protocol: Chem. 271:13197-201. 1996; Goto et al., J Biol Chem. 274:25543-9, 1999). The assay protocol was as follows. Tumors from rodents treated or untreated with Chk1 activator (in the present study, chemotherapy agent) and/or Chk1 inhibitor, were excised and paraffin embedded. The tumors are cut into 6 micron thick slices and mounted on glass slides. […] The slides are then heated to 95° C. in 10 mM sodium citrate for 10 minutes followed by a 20 minute cooling step. The slides are blocked for 30 minutes with Block buffer (20% normal human serum and 2% bovine serum albumin in phosphate buffered saline containing 0.05% Triton X-100 (PBST)). The anti-phospho histone H3 antibody (Upstate Biotech, Cat. #06-570) is diluted 1:200 in the Block buffer and incubated with the slides for one hour. The slides are washed 3 times 5 minutes in PBST. The secondary antibody, donkey anti-rabbit rhodamine (Jackson, cat #711-295-152) was added for 30 minutes. The slides were then washed twice in PBST and […] of […] DAPI (Sigma) in PBS is added and allowed to stain for 30 minutes. The slides were then washed two more times in PBST and mounted with Vectashield (Vector, cat # H-1400). Slides were viewed using fluorescence microscopy. The percentage of cells stained with H3-P antibody relative to total (DAPI stained) cells were quantified using Metamorph software (Universal Imaging Corporation, Version 4.6). […]

HT29 tumors = test: Rb-Pser795 S phase marker staining of HT29 tumors; type: in vivo, mice; settings: 100 mg/kg gemcitabine i.p., 1 to 72 hr
From the text: To confirm that low H3-P staining corresponds to S phase arrest, tumors were also stained with an S phase marker, phosphorylated Rb-Pser795. Tumor slices taken in the experiment above were stained with the Rb-Pser795 antibody (Cell Signaling Cat# 9301S) and the number of positive staining cells quantified.

Chk1 = Chk1 serine 296 phosphorylation, Western blot in HT29 cells; type: cell-based, human; settings: HT29 cells, 20 μM gemcitabine for two hours, 22 additional hours
Protocol: Phosphorylation at this site is not inhibited by Wortinannin, which inhibits Atm and Atr. Therefore the phosphorylation of serine 296 is distinct from phosphorylation at serines 317 and 345 described in Example 12. […] Therefore, this approach may be used to monitor Chk1 activity in tumors in response to Chk1 activators. Further, this approach may be used to measure inhibition of Chk1 activation by Chk1 inhibitors.
Thus, HT 29 cells were treated with 20 μM gemcitabine for two hours. The gemcitabine was washed out of the cell growth media and cells were incubated for 22 additional hours. Protein lysates were prepared and separated by an SDS-polyacrylamide gel electrophoresis. Proteins were transferred to polyvinylidene fluoride (PVDF) membranes and probed with antisera (Cell Signalling) specific for phosphorlyated serine 296 (Cell Signalling). […] Further, HT29 cells treated with selective Chk1 inhibitors for 15 minutes show no serine 296 phosphorylation.

`Nc1ccn([C@@H]2O[C@H](CO)[C@@H](O)C2(F)F)c(=O)n1` [gemcitabine] was tested, and the “median tumor volume on day 10” value (H460 tumor cells) was “four”, the “Fold Sensitization to Agent by Chk1 Inhibitor” value (tumor cells) was 12 fold and the “time at which cells exited S phase arrest” value (H460 tumors; H460 cells, after gemcitabine) was 48 h. For the same compound, the “time of lowest H3-P staining” value (H460 tumors; H460 tumors treated with gemcitabine) was 12 h, the Rb-P staining cells (HT29 tumors) was “more Rb-P staining cells at, 24, 48 and 72 hours than at earlier timepoints” and the “phosphorylation of Chk1 serine 296” value (Chk1) was “stimulated; also recorded: results in the phosphorylation of serine 296”.
